Assay: Reactivity of polyols with active compounds of formula I
Type: physicochemical

Reactivity with the active compounds of formula I (undesired reaction products): practically no reactivity
Compound: OC[C@H]1O[C@@H](O[C@H]2[C@H](O)[C@@H](O)C(O)O[C@@H]2CO)[C@H](O)[C@@H](O)[C@H]1O (stereo partly shown) [Lactose]

— patent US8946229B2, “Formulations” (UCB, Inc., priority 2002, dated 2015)
